Data published in patent US11548894B2, “Benzamide or benzamine compounds useful as anticancer agents for the treatment of human cancers” (The Board of Regents of the University of Texas System, priority 2015, dated 2023).
Structures can show the parent of a compound that is named as a salt.

The compounds below were run on Mut6 cells (TD-NSC) (assay: luminescence-based Celltiter-Glo cell viability assay (ATP levels) on Mut6 tumor derived neuronal stem cells). Conditions: ATP activity as measure of viability, 96 hours; Hydrochloride; read-out: EC50 (TD-NSC).
Design: species or system mouse
From the text: A mouse colony with 100% incidence of GBM and with conditional knockout of p53, pTEN and NF1 genes (Mut6; glioblastoma) was used to isolate primary neuronal stem cells from GBM tumors cultured in 5% Oxygen and in serum free media with defined growth factors. Primary cells from multiple tumors were pooled for high throughput screening with controls against the University of Texas Southwestern (UTSW) compound file, which encompasses ˜200,000 synthetic compounds that represent a large chemical space from several commercial vendors, including 1200 marketed drugs from the Prestwick Chemical Library®, and 600 compounds that went to pre-clinical tests from the NIH library.
A luminescence-based Celltiter-Glo® assay was performed to measure cell viability, using ATP levels as the readout. In brief, opaque-walled multiwell plates with Mut6 cells in culture medium (25 μl per well, 384-well plates) were prepared. Control wells containing medium without cells were prepared to obtain a value for background luminescence. Test compounds were added to experimental wells, and incubated according to culture protocol. The plate and its contents were incubated at 37° C., 5% […] for 96 hours. An ATP standard curve was generated immediately prior to adding the CellTiter-Glo® Reagent. A volume of CellTiter-Glo® Reagent equal to the volume of cell culture medium present in each well (25 μl of reagent to 25 μl of medium containing cells for a 384-well plate) was added. The contents were mixed for 2 minutes on an orbital shaker to induce cell lysis. The plate was allowed to incubate at room temperature for 10 minutes to stabilize the luminescent signal and luminescence recorded. (e.g. GloMax®, Lumistar, SPECTROstar, PHERAstar FS).
Compound 4C12 served as initial lead compound for analog development and for additional studies. […] See Wager, T T et al, “Moving beyond rules: the development of a central nervous system multi-parameter-optimization (CNS MPO) approach to enable alignment of drug-like properties,” ACS Chem. Neurosci. 1(6): 435-49 (2010). IC50 curves for the analog compounds plotted as ATP activity (y axis, a measure of viability) vs. concentration (nM) (x-axis) are shown in FIG. 9.
In the case of `CCN1CCCC1CNC(=O)c1ccc(Sc2ccc(F)cc2)c([N+](=O)[O-])c1` (stereo not shown) [DS-1-191, N-((1-ethylpyrrolidin-2-yl)methyl)-4-((4-fluorophenyl)thio)-3-nitrobenzamide Hydrochloride], the EC50 is reported as 95 nM.
For `CCN(CC)CCNC(=O)c1ccc(Sc2ccc(F)cc2)c([N+](=O)[O-])c1` [DS-1-239, N-(2-(diethylamino)ethyl)-4-((4-fluorophenyl)thio)-3-nitrobenzamide Hydrochloride], the EC50 was 59 nM.
For `O=C(NCCN1CCOCC1)c1ccc(Sc2ccc(F)cc2)c([N+](=O)[O-])c1` [DS-1-241, 4-((4-fluorophenyl)thio)-N-(2-morpholinoethyl)-3-nitrobenzamide Hydrochloride], the EC50 was 44 nM.

Same assay, conditions: Mus musculus, 96 h, ATP activity as measure of viability, 96 hours; read-out: EC50 (TD-NSC)
For `O=C(NCc1ccccn1)c1ccc(Sc2ccc(F)cc2)c([N+](=O)[O-])c1` [DS-1-023, 4-((4-fluorophenyl)thio)-3-nitro-N-(pyridin-2-ylmethyl)benzamide], the EC50 was greater than 1000 nM.
In the case of `CCN1CCCC1CNC(=O)c1ccc(Sc2ccc(C(F)(F)F)cc2)c([N+](=O)[O-])c1` (stereo not shown) [DS-1-065, N-((1-ethylpyrrolidin-2-yl)methyl)-3-nitro-4-((4-(trifluoromethyl)phenyl)thio)benzamide], the EC50 is reported as 86 nM.
`CCN1CCCC1CNC(=O)c1ccc(Sc2ccc(F)c(F)c2)c([N+](=O)[O-])c1` (stereo not shown) [DS-1-067, 4-((3,4-difluorophenyl)thio)-N-((1-ethylpyrrolidin-2-yl)methyl)-3-nitrobenzamide] was tested, and the EC50 was 118 nM.
With `CCN1CCCC1CNC(=O)c1ccc(Sc2ccccn2)c([N+](=O)[O-])c1` (stereo not shown) [DS-1-071, N-((1-ethylpyrrolidin-2-yl)methyl)-3-nitro-4-(pyridin-2-ylthio)benzamide] the EC50 was 419 nM.
In the case of `CCN1CCCC1CNC(=O)c1ccc(Sc2ccccc2F)c([N+](=O)[O-])c1` (stereo not shown) [DS-1-075, N-((1-ethylpyrrolidin-2-yl)methyl)-4-((2-fluorophenyl)thio)-3-nitrobenzamide], the EC50 is reported as 102 nM.
Work on `CCN1CCCC1CNC(=O)c1ccc(Sc2ccc(NC(C)=O)cc2)c([N+](=O)[O-])c1` (stereo not shown) [DS-1-077, 4-((4-acetamidophenyl)thio)-N-((1-ethylpyrrolidin-2-yl)methyl)-3-nitrobenzamide] yielded an EC50 greater than 1000 nM.
Work on `O=C(NCCN1CCOCC1)c1ccc(Sc2ccc(F)cc2)c([N+](=O)[O-])c1` [DS-1-089, 4-((4-fluorophenyl)thio)-N-(2-morpholinoethyl)-3-nitrobenzamide] yielded an EC50 of 25 nM.
With `CCN1CCCC1CNC(=O)c1ccc(Oc2ccc(F)cc2)c([N+](=O)[O-])c1` (stereo not shown) [DS-1-103, N-((1-ethylpyrrolidin-2-yl)methyl)-4-(4-fluorophenoxy)-3-nitrobenzamide] the EC50 was 36 nM.
With `CCN1CCCC1CNC(=O)c1ccc(Nc2ccc(F)cc2)c([N+](=O)[O-])c1` (stereo not shown) [DS-1-105, N-((1-ethylpyrrolidin-2-yl)methyl)-4-((4-fluorophenyl)amino)-3-nitrobenzamide] the EC50 was 255 nM.
Work on `CCN1CCCC1CNC(=O)c1ccc(Sc2ccc(F)cc2)cc1` (stereo not shown) [DS-1-117, N-((1-ethylpyrrolidin-2-yl)methyl)-4-((4-fluorophenyl)thio)benzamide] yielded an EC50 of 394 nM.
In the case of `CC[N+]1(C)CCCC1CNC(=O)c1ccc(Sc2ccc(F)cc2)c([N+](=O)[O-])c1` (stereo not shown) [DS-1-119, 1-ethyl-2-((4-((4-fluorophenyl)thio)-3-nitrobenzamido)methyl)-1-methylpyrrolidin-1-ium Iodide], the EC50 is reported as greater than 1000 nM.
With `CCN1CCCC1CNC(=O)c1ccc(Sc2ccc(C(C)C)cc2)c([N+](=O)[O-])c1` (stereo not shown) [DS-1-123, N-((1-ethylpyrrolidin-2-yl)methyl)-4-((4-isopropylphenyl)thio)-3-nitrobenzamide] the EC50 was 516 nM.
In the case of `CCN1CCCC1CNC(=O)c1ccc([S+]([O-])c2ccc(F)cc2)c([N+](=O)[O-])c1` (stereo not shown) [DS-1-135, N-((1-ethylpyrrolidin-2-yl)methyl)-4-((4-fluorophenyl)sulfinyl)-3-nitrobenzamide], the EC50 is reported as greater than 1000 nM.
`CCN1CCCC1CNC(=O)c1ccc(SC2CCCCC2)c([N+](=O)[O-])c1` (stereo not shown) [DS-1-139, 4-(cyclohexylthio)-N-((1-ethylpyrrolidin-2-yl)methyl)-3-nitrobenzamide] was tested, and the EC50 was 192 nM.
`CCN1CCCC1CNC(=O)c1ccc(Sc2ccc(N)cc2)c([N+](=O)[O-])c1` (stereo not shown) [DS-1-177, 4-((4-aminophenyl)thio)-N-((1-ethylpyrrolidin-2-yl)methyl)-3-nitrobenzamide] gave an EC50 of 340 nM.
For `CCN1CCCC1CNC(=O)c1ccc(Sc2ccc(C(=O)O)cc2)c([N+](=O)[O-])c1` (stereo not shown) [DS-1-179, 4-((4-(((1-ethylpyrrolidin-2-yl)methyl)carbamoyl)-2-nitrophenyl)thio)benzoic Acid Hydrochloride], the EC50 was greater than 1000 nM.
For `CCN1CCCC1CNC(=O)c1ccc(-c2ccc(F)cc2)c([N+](=O)[O-])c1` (stereo not shown) [DS-1-181, N-((1-ethylpyrrolidin-2-yl)methyl)-4′-fluoro-2-nitro-[1,1′-biphenyl]-4-carboxamide], the EC50 was greater than 1000 nM.
Compound `CCN1CCCC1CNC(=O)c1ccc(-c2cccc(F)c2)c([N+](=O)[O-])c1` (stereo not shown) [DS-1-183, N-((1-ethylpyrrolidin-2-yl)methyl)-3′-fluoro-2-nitro-[1,1′-biphenyl]-4-carboxamide] has an EC50 greater than 1000 nM.
In the case of `CCN1CCCC1CNC(=O)c1ccc(Sc2ccc(Br)cc2)c([N+](=O)[O-])c1` (stereo not shown) [DS-1-185, 4-((4-bromophenyl)thio)-N-((1-ethylpyrrolidin-2-yl)methyl)-3-nitrobenzamide], the EC50 is reported as 62 nM.
For `CN(CCN)CCNC(=O)c1ccc(Sc2ccc(F)cc2)c([N+](=O)[O-])c1` [DS-1-195, N-(2-((2-aminoethyl)(methyl)amino)ethyl)-4-((4-fluorophenyl)thio)-3-nitrobenzamide], the EC50 was greater than 1000 nM.
`CN(CCNC(=O)CCCC[C@@H]1SC[C@@H]2NC(=O)N[C@@H]21)CCNC(=O)c1ccc(Sc2ccc(F)cc2)c([N+](=O)[O-])c1` [DS-1-205] showed an EC50 of 40000 nM.
`CCN1CCCC1CNC(=O)c1ccc(Sc2ccc(F)cc2)nc1` (stereo not shown) [DS-1-209, N-((1-ethylpyrrolidin-2-yl)methyl)-6-((4-fluorophenyl)thio)nicotinamide] showed an EC50 greater than 1000 nM.
In the case of `CCN1CCCC1CNC(=O)c1ccc(NS(=O)(=O)c2ccc(F)cc2)c([N+](=O)[O-])c1` (stereo not shown) [DS-1-213, N-((1-ethylpyrrolidin-2-yl)methyl)-4-(4-fluorophenylsulfonamido)-3-nitrobenzamide], the EC50 is reported as greater than 1000 nM.
`CCN1CCCC1CNC(=O)c1ccc(Sc2ccc(O)cc2)c([N+](=O)[O-])c1` (stereo not shown) [DS-1-217, N-((1-ethylpyrrolidin-2-yl)methyl)-4-((4-hydroxyphenyl)thio)-3-nitrobenzamide] was tested, and the EC50 was 485 nM.
With `CCN1CCCC1CNC(=O)c1ccc(Sc2ccc(F)cc2)c(N)c1` (stereo not shown) [DS-1-225, 3-amino-N-((1-ethylpyrrolidin-2-yl)methyl)-4-((4-fluorophenyl)thio)benzamide] the EC50 was 192 nM.
`CCN1CCCC1CNC(=O)c1ccc(Sc2ccc(F)cc2)c(C(N)=O)c1` (stereo not shown) [DS-1-231-M, N^1-((1-ethylpyrrolidin-2-yl)methyl)-4-((4-fluorophenyl)thio)isophthalamide] gave an EC50 greater than 1000 nM.
Work on `C#CCOc1ccc(Sc2ccc(C(=O)NCC3CCCN3CC)cc2[N+](=O)[O-])cc1` (stereo not shown) [DS-1-261, N-((1-ethylpyrrolidin-2-yl)methyl)-3-nitro-4-((4-(prop-2-yn-1-yloxy)phenyl)thio)benzamide] yielded an EC50 of 269 nM.

Same assay, conditions: Mus musculus; ATP activity as measure of viability, 96 hours; read-out: EC50 (TD-NSC)
`CCN1CCCC1CNC(=O)c1ccc(Sc2ccc([N+](=O)[O-])cc2)c([N+](=O)[O-])c1` (stereo not shown) [DS-1-137, N-((1-ethylpyrrolidin-2-yl)methyl)-3-nitro-4-((4-nitrophenyl)thio)benzamide] gave an EC50 of 69 nM.
